Assay results published in patent US20160002247A1, “8-SUBSTITUTED IMIDAZOPYRIMIDINONE DERIVATIVE HAVING AUTOTAXIN INHIBITORY ACTIVITY” (THE UNIVERSITY OF TOKYO, priority 2013, published 2016).

target: T1, Human autotaxin enzyme (Homo sapiens, UniProt Q13822); test: Evaluation of autotaxin inhibitor, Method B (Test Example 2): TG-mTMP fluorescence; format: biochemical; conditions: Assay Method B (Test Example 2), human autotaxin; read-out: Inhibitory Activity (autotaxin enzyme inhibitory activity, IC50 class)
T1 construct: purchased R&D System
Procedure: (Method B) Evaluation of Autotaxin Inhibitor
Solution A containing 25 mM Tris-HCl buffer (pH7.5), 100 mM NaCl, 5 mM MgCl2 and 0.1% BSA was prepared. Human autotaxin enzyme (purchased from R&D System) was diluted with Solution A, and 5 μL of which was added to a solution of test compound in DMSO. Furthermore, 5 μl of 0.5 μM TG-mTMP in Solution A was added and allowed to react at room temperature for 2 hours. 5 μl of 150 mM EDTA in Solution A was added to quench the reaction, and the fluorescent dye TokyoGreen, which was produced by the reaction, was detected. The fluorescence was detected using ViewLux (PerkinElmer, Inc.) with an excitation wavelength of 480 nm and a fluorescence wavelength of 540 nm.

Row | IC50 | Structure (SMILES)
1 | > 1000 nM | Cc1cc(=O)n2cc(-c3ccc(Cl)cc3)nc2n1Cc1ccc(Oc2ccccc2)cc1 [Compound 93]
2 | 100 to 1000 nM | CCCCCn1c(C)cc(=O)n2cc(-c3ccc4c(c3)OCCCO4)nc12 [Compound 160]
3 | 100 to 1000 nM | Cc1cc(=O)n2cc(-c3ccc(Cl)cc3)nc2n1Cc1ccc(OC(F)(F)F)cc1 [Compound 122]
4 | < 10 nM | CCCCCn1c(N2CCN(CC(=O)N(C)C)CC2)cc(=O)n2cc(-c3ccc(Cl)cc3)nc12 [Compound 240]
5 | 10 to 100 nM | CCCCCn1c(N2CCCC2C(C)CCC)cc(=O)n2cc(-c3ccc(Cl)cc3)nc12 (stereo not drawn) [Compound 280]
6 | 10 to 100 nM | CCCCCn1c(/C=C/COC)cc(=O)n2cc(-c3ccc(Cl)cc3)nc12 [Compound 423]
7 | < 10 nM | Cc1cc(=O)n2cc(-c3ccc(Cl)cc3)nc2n1Cc1ccc(OCCCN(C)C)cc1 [Compound 89]
8 | < 10 nM | CN(C)CCNC(=O)c1ccc(-c2cc(=O)n3cc(-c4ccc(C#N)cc4)nc3n2CCCCC#N)cc1 [Compound 384]
9 | > 1000 nM | CCCCCn1c(C)cc(=O)n2cc(-c3ccc(N4CCCC4=O)cc3)nc12 [Compound 148]
10 | < 10 nM | CCCCCn1c(NCc2ccc(C(=O)OC)cc2)c(C)c(=O)n2cc(-c3ccc(Cl)cc3)nc12 [Compound 178, methyl 4-((2-(4-chlorophenyl)-6-methyl-5-oxo-8-pentyl-5,8-dihydroimidazo[1,2-a]pyrimidin-7-ylamino)methyl)benzoate]
11 | 100 to 1000 nM | CCCCCn1c(OC23CCC(CC2)CC3)cc(=O)n2cc(-c3ccc(Cl)cc3)nc12 [Compound 267]
12 | 100 to 1000 nM | CCCCCn1c(C)cc(=O)n2cc(-c3ccc(F)cc3F)nc12 [Compound 162]
13 | 10 to 100 nM | Cc1cc(=O)n2cc(-c3ccc(Cl)cc3)nc2n1Cc1ccccn1 [Compound 114]
14 | 10 to 100 nM | CCCCCn1c(N2CCCCCC2)cc(=O)n2cc(-c3ccc(Cl)cc3)nc12 [Compound 247]
15 | 10 to 100 nM | CCCCCn1c(-c2ccoc2)cc(=O)n2cc(-c3ccc(Cl)cc3)nc12 [Compound 403]
16 | 100 to 1000 nM | CCCCCn1c(C)c(CCCC)c(=O)n2cc(-c3ccc(Cl)cc3)nc12 [Compound 204]
17 | 100 to 1000 nM | CCCCCn1c(-c2cc3ccccc3o2)cc(=O)n2cc(-c3ccc(Cl)cc3)nc12 [Compound 392]
18 | > 1000 nM | CCCCCn1c(C)cc(=O)n2cc(-c3ccc(C4CCCCC4)cc3)nc12 [Compound 145]
19 | 10 to 100 nM | CCCCCn1c(C)cc(=O)n2cc(-c3ccc(OC)cc3)nc12 [Compound 152]
20 | < 10 nM | CCCCCOC(=O)CCc1c(C)n(CCCCC)c2nc(-c3ccc(Cl)cc3)cn2c1=O [Compound 201]
21 | < 10 nM | N#CCCCCn1c(-c2ccc(C(N)=O)cc2)cc(=O)n2cc(-c3ccc(C#N)cc3)nc12 [Compound 385]

Row | IC50 | Structure (SMILES)
22 | 10 to 100 nM | Cc1cc(=O)n2cc(-c3ccc(Cl)cc3)nc2n1Cc1ccc(S(=O)(=O)C(F)F)cc1 [Compound 113]
23 | < 10 nM | CCCCCn1c(-n2ccccc2=O)cc(=O)n2cc(-c3ccc(Cl)cc3)nc12 [Compound 426]
24 | < 10 nM | N#CCCCCn1c(-c2ccc(C(N)=O)cc2)cc(=O)n2cc(-c3ccc(Cl)cc3)nc12 [Compound 379]
25 | 10 to 100 nM | CCCCCn1c(N2CCC[C@@H]2C)cc(=O)n2cc(-c3ccc(Cl)cc3)nc12 [Compound 258]
26 | 100 to 1000 nM | CCCCCn1c(C)cc(=O)n2c(C=O)c(-c3ccc(Cl)cc3)nc12 [Compound 167, 2-(4-chlorophenyl)-7-methyl-5-oxo-8-pentyl-5,8-dihydroimidazo[1,2-a]pyrimidine-3-carbaldehyde]
27 | 10 to 100 nM | CCCCCn1c(/C=C/c2ccccc2)cc(=O)n2cc(-c3ccc(Cl)cc3)nc12 [Compound 398]
28 | < 10 nM | CCCCCn1c(N2CCC(C(=O)O)CC2)cc(=O)n2cc(-c3ccc(Cl)cc3)nc12 [Compound 225]
29 | 10 to 100 nM | Cc1cc(=O)n2cc(-c3ccc(Cl)cc3)nc2n1Cc1ccc(Cl)c(Cl)c1 [Compound 104]
30 | 10 to 100 nM | CCCCCn1c(NCc2nccs2)cc(=O)n2cc(-c3ccc(Cl)cc3)nc12 [Compound 233]
31 | 10 to 100 nM | CCCCCn1c(NCCO)cc(=O)n2cc(-c3ccc(Cl)cc3)nc12 [Compound 222]
32 | 10 to 100 nM | CCCCCn1c(/C=C/C(C)(C)C)cc(=O)n2cc(-c3ccc(Cl)cc3)nc12 [Compound 415]
33 | 10 to 100 nM | CCCCCn1c(C)c(NC(C)=O)c(=O)n2cc(-c3ccc(Cl)cc3)nc12 [Compound 199]
34 | 100 to 1000 nM | CCCCCn1c(C)c(C(=O)O)c(=O)n2cc(-c3ccc(Cl)cc3)nc12 [Compound 185]
35 | 10 to 100 nM | COC(=O)c1ccc(Cn2c(C)cc(=O)n3cc(-c4ccc(Cl)cc4)nc23)cc1 [Compound 103]
36 | 10 to 100 nM | CCCCCn1c(-c2ccc(N)cc2)cc(=O)n2cc(-c3ccc(Cl)cc3)nc12 [Compound 422]
37 | < 10 nM | CCCCCn1c(-c2ccc(O)cc2)cc(=O)n2cc(-c3ccc(Cl)cc3)nc12 [Compound 411]
38 | 100 to 1000 nM | Cc1cc(=O)n2cc(-c3ccc(Cl)cc3)nc2n1Cc1ccc(C(F)(F)F)cc1 [Compound 116]
39 | 10 to 100 nM | CCCCCn1c(NCc2ccc(C(=O)OC)cc2)cc(=O)n2cc(-c3ccc(Cl)cc3)nc12 [Compound 177, methyl 4-((2-(4-chlorophenyl)-5-oxo-8-pentyl-5,8-dihydroimidazo[1,2-a]pyrimidin-7-ylamino)methyl)benzoate]
40 | < 10 nM | CCCCCn1c(NCC(=O)N2CCN(C)CC2)cc(=O)n2cc(-c3ccc(Cl)cc3)nc12 [Compound 241]
41 | < 10 nM | CCCCCn1c(N2C(C)CCC2C)cc(=O)n2cc(-c3ccc(Cl)cc3)nc12 (stereo not drawn) [Compound 255]
42 | < 10 nM | CCCCCn1c(-c2ccncc2)cc(=O)n2cc(-c3ccc(Cl)cc3)nc12 [Compound 410]

Row | IC50 | Structure (SMILES)
43 | > 1000 nM | CCCCCn1c(Oc2ccc(-c3ccccc3)cc2)cc(=O)n2cc(-c3ccc(Cl)cc3)nc12 [Compound 265]
44 | 100 to 1000 nM | CCCCCn1c(C)cc(=O)n2cc(-c3ccccc3F)nc12 [Compound 163]
45 | 10 to 100 nM | COC(=O)Cc1ccc(Cn2c(C)cc(=O)n3cc(-c4ccc(Cl)cc4)nc23)cc1 [Compound 112]
46 | 100 to 1000 nM | CCCCCn1c(C)c(CCC(=O)OCC)c(=O)n2cc(-c3cccc(Cl)c3)nc12 [Compound 210]
47 | > 1000 nM | CCCCCn1c(C)c(-c2ccccc2)c(=O)n2cc(-c3ccc(Cl)cc3)nc12 [Compound 182]
48 | < 10 nM | CCCCCn1c(OC2CCN(C)CC2)cc(=O)n2cc(-c3ccc(Cl)cc3)nc12 [Compound 193]
49 | 100 to 1000 nM | CCCCCn1c(Oc2ccc(C(=O)CC)cc2)cc(=O)n2cc(-c3ccc(Cl)cc3)nc12 [Compound 266]
50 | < 10 nM | CCCCCn1c(N2CCC2)cc(=O)n2cc(-c3ccc(Cl)cc3)nc12 [Compound 196]
51 | > 1000 nM | CCCCCn1c(C)c(F)c(=O)n2cc(-c3cccc(Cl)c3)nc12 [Compound 212]
52 | > 1000 nM | CCCc1cn2c(=O)ccn(CCc3ccc(Cl)cc3)c2n1 [Compound 128]
53 | 10 to 100 nM | CCCCCn1c(NCCOC)cc(=O)n2cc(-c3ccc(Cl)cc3)nc12 [Compound 250]
54 | 10 to 100 nM | CCCCCn1c(C)c(F)c(=O)n2cc(-c3ccc(Cl)cc3)nc12 [Compound 206]
55 | 10 to 100 nM | CCCCCn1c(NCCNC(C)=O)cc(=O)n2cc(-c3ccc(Cl)cc3)nc12 [Compound 236]
56 | 10 to 100 nM | CCCCCn1c(NCc2cccn2C)cc(=O)n2cc(-c3ccc(Cl)cc3)nc12 [Compound 228]
57 | < 10 nM | CCCCCn1c(C=O)cc(=O)n2cc(-c3ccc(Cl)cc3)nc12 [Compound 370]
58 | 10 to 100 nM | Cc1cncc(Oc2ccc(Cn3c(C)cc(=O)n4cc(-c5ccc(Cl)cc5)nc34)cc2)n1 [Compound 92]
59 | 10 to 100 nM | CCCCCn1c(N2C[C@H]3CC[C@@H](C2)O3)cc(=O)n2cc(-c3ccc(Cl)cc3)nc12 [Compound 239]
60 | 10 to 100 nM | CCC(CC)Cn1c(C)cc(=O)n2cc(-c3ccc(Cl)cc3)nc12 [Compound 87]
61 | 10 to 100 nM | CCCCCn1c(C)cc(=O)n2cc(-c3ccc(Oc4ccccc4)cc3)nc12 [Compound 141]
62 | 10 to 100 nM | CCCCCn1c(C)cc(=O)n2c(Br)c(-c3ccc(Cl)cc3)nc12 [Compound 171]
63 | 100 to 1000 nM | CCCCCn1c(C)c(NC(C)=O)c(=O)n2cc(-c3cccc(Cl)c3)nc12 [Compound 209]

same assay, conditions: Assay Method: Method B (Test Example 2); read-out: Inhibitory Activity (Enzyme Inhibitory Activity, IC50)

Row | IC50 | Structure (SMILES)
64 | 100 to 1000 nM | Cc1cccc(Cn2c(C)cc(=O)n3cc(-c4ccc(Cl)cc4)nc23)c1 [Compound 60]
65 | 10 to 100 nM | CCCC(C)n1c(C)cc(=O)n2cc(-c3ccc(Cl)cc3)nc12 (stereo not drawn) [Compound 56]
66 | 10 to 100 nM | CCCC(O)Cn1c(C)cc(=O)n2cc(-c3ccc(Cl)cc3)nc12 (stereo not drawn) [Compound 42]
67 | < 10 nM | CCCCCn1c(C)cc(=O)n2cc(-c3ccc(Br)cc3)nc12 [Compound 18]
68 | 10 to 100 nM | Cc1cc(=O)n2cc(-c3ccc(Cl)cc3)nc2n1CC1CCCCC1 [Compound 58]
69 | 10 to 100 nM | Cc1cc(=O)n2cc(-c3ccc(Cl)cc3)nc2n1CC1CC1 [Compound 66]
70 | 10 to 100 nM | CCCCn1c(C)cc(=O)n2cc(-c3ccc(Cl)cc3)nc12 [Compound 7]
71 | 10 to 100 nM | Cc1cc(=O)n2cc(-c3ccc(Cl)cc3)nc2n1C1CCC1 [Compound 83]
72 | 10 to 100 nM | CCC(C)Cn1c(C)cc(=O)n2cc(-c3ccc(Cl)cc3)nc12 (stereo not drawn) [Compound 71]
73 | 100 to 1000 nM | Cc1cc(=O)n2cc(-c3ccc(Cl)cc3)nc2n1CCCCCO [Compound 45]
74 | 100 to 1000 nM | Cc1cc(=O)n2cc(-c3ccc(Cl)cc3)nc2n1CCOC(C)C [Compound 76]

same assay, conditions: Inhibitory Activity (autotaxin enzyme inhibitory activity, IC50 class), Assay Method B (Test Example 2), human autotaxin

Row | Structure (SMILES) | IC50
75 | CCCCCn1c(NC2C[C@@H]3CC[C@H]2C3)cc(=O)n2cc(-c3ccc(Cl)cc3)nc12 (stereo partly drawn) [Compound 252] | 10 to 100 nM
